# Data taken from patent US20020132030A1, “Composition and method for prolonging the useful life of enteral feeding tubes” (priority 1999, published 2002).
# Key:
# Enterobacter cloacae [1] = experiment: Challenge of propyl paraben, sodium benzoate, potassium sorbate singly and in combinations in Isosource HN, Example 4; assay type: cell-based; settings: 0.13% propyl paraben, 0.1% sodium benzoate, 0.1% potassium sorbate in Isosource HN
# Procedure: (§1) The antimicrobials, propyl paraben, sodium benzoate, and potassium sorbate are challenged singly, and in combinations, against 5 organisms.
# (§2) Isosource HN® is packaged and retorted with the allowable FDA limits. Three samples, A, B, or C are prepared, having, respectively, 0.13% propyl paraben (A), 0.1% sodium benzoate (B), and 0.1% potassium sorbate (C). Additional samples D, E, and F are mixtures of A & B, A & C, and A & B & C. Three control samples: G having 0.26% ethanol; H having no preservatives and 1, a blank control are also prepared. A 350-ml aliquot of each retorted product is transferred to a sterile flask and inoculated with one of the designated organisms. A like trial is initiated for each of five organisms, Aspergillus niger, Candida albicans, Enterobacter cloacae, Staphylococcus aureus, and Lactobacillus delbrueckii. These organisms are inoculated, respectively, at 44 organisms/ml product; 2 organisms/ml product; 2 organisms/ml product; 4.1 organisms/ml product, and 30 organisms/ml product. An ethanol control is included for all the tests because it is used as the solvent carrier for paraben. An inoculated control with no inhibitors is also used for comparison. The samples are incubated at the appropriate temperature for optimum growth, and aliquots are pulled for testing at the designated intervals. Results are read and recorded as the population per milliliter of sample tested.
# Candida albicans [2] = experiment: as above; assay type: cell-based; settings: 0.13% propyl paraben, 0.1% sodium benzoate, 0.1% potassium sorbate in Isosource HN
# Procedure: as §1, §2
# [3] = tested on: 6 different organisms: A. niger, B. stearotherm, C. albicans, E. cloacae, L. Leichmanii, and S. aureus; experiment: Challenge study using combinations, overall summary over all organisms, Example 2; assay type: cell-based; settings: for synergistic effect: in combination with one of the parabens
# Procedure: (§3) A challenge study is done on commercially sterile product containing combinations of 4 GRAS antimicrobial agents: methyl paraben, propyl paraben, diacetyl, and natamycin. Ten different matrices are tested against 6 different organisms: A. niger, B. stearotherm, C. albicans, E. cloacae, L. Leichmanii, and S. aureus.
# Enterobacter cloacae [4] = experiment: Paraben challenge in commercially sterile product (Isosource), Example 1; assay type: cell-based; settings: 0.1% in Isosource; for Inhibition of Enterobacter cloacae: 24 hours
# Procedure: (§4) Commercially sterile product (Isosource®) with 0.1% methyl or propyl paraben is prepared. Organisms were challenged in both variations at their optimum growth temperature and room temperature (RT). The populations are determined at different time intervals and compared to a spiked control without the parabens.
# Lactobacillus leichmanni = experiment: Challenge study using combinations of 4 GRAS antimicrobial agents, Example 2; assay type: cell-based; settings: 0.2%
# Procedure: as §3
# [5] = tested on: Bacillus stearothermophilus; experiment: as above; assay type: cell-based
# Procedure: as §3
# Enterobacter cloacae [6] = experiment: as above; assay type: cell-based; settings: 0.2%
# Procedure: as §3
# Candida albicans [7] = experiment: as above; assay type: cell-based; settings: 0.2%
# Procedure: as §3
# Aspergillus niger [8] = experiment: as above; assay type: cell-based; settings: for effectiveness against growth of Aspergillus niger: 0.2%
# Procedure: as §3
# Candida albicans [9] = experiment: Feeding tube lifetime (clogging) test in vitro, Example 3; settings: 0.1% in formula, feeding tube inoculated with 100 CFU Candida albicans, approximately 30° C.
# Procedure: Feeding solution is perfused through a feeding tube and maintained at approximately 30° C. during the test, which may last several days or weeks. At the time the test is begun the solution within the feeding tube is inoculated with 100 CFU of Candida albicans. After a few hours of incubation (no flow in the tube), perfusion is started and continued until the tube becomes clogged due to overgrowth of the microorganisms.
# Candida albicans [10] = experiment: Paraben challenge in commercially sterile product (Isosource), Example 1; assay type: cell-based; settings: 0.1% in Isosource
# Procedure: as §4
# 5 organisms = experiment: Challenge of three antimicrobials, overall summary over 5 organisms, Example 4; assay type: cell-based; settings: 0.13% propyl paraben, 0.1% sodium benzoate, 0.1% potassium sorbate in Isosource HN
# Procedure: as §1
# as §2, with “The samples are incubated at the appropriate temperature for optimum growth, and aliquots are pulled for testing at the designated intervals.” left out
# Aspergillus niger [11] = experiment: Challenge of propyl paraben, sodium benzoate, potassium sorbate singly and in combinations in Isosource HN, Example 4; assay type: cell-based
# Procedure: as §1, §2
# Staphylococus aureus = experiment: Challenge study using combinations of 4 GRAS antimicrobial agents, Example 2; assay type: cell-based
# Procedure: as §3
smiles,measurement,setting,value
"C/C=C/C=C/C(=O)[O-].[K+] [Potassium sorbate, potassium sorbate]",Inhibition of Enterobacter cloacae,Enterobacter cloacae [1],most effective agent alone
same,inhibition of Candida albicans,Candida albicans [2],not effective
CC(=O)C(C)=O [diacetyl],effectiveness alone compared with the parabens,[3]; alone,not as effective alone as the parabens
same,synergistic effect,[3],does not contribute any synergistic effect
COC(=O)c1ccc(O)cc1 [methyl paraben],Inhibition of Enterobacter cloacae,Enterobacter cloacae [4]; 35° C.,dramatic
same,difference in population compared to the control,"Enterobacter cloacae [4]; 35° C., 48 hours",0.5 logs
same,Inhibition of Enterobacter cloacae,Enterobacter cloacae [4]; room temperature,slight inhibition
same,growth lower than the propyl paraben sample,"Enterobacter cloacae [4]; room temperature, 48 hours",1.5 logs
same,effectiveness against Lactobacillus leichmanni,Lactobacillus leichmanni,effective
same,inhibition of Bacillus stearothermophilus growth,[5],greatest amount of inhibition
same,effectiveness alone against Bacillus,"[5]; alone, summary statement",very effective
same,effect on Enterobacter cloacae growth,Enterobacter cloacae [6]; first 24 hours,slows growth slightly
same,effect on Enterobacter cloacae growth,Enterobacter cloacae [6]; otherwise (other than first 24 hours),uninhibited
same,inhibition of Candida albicans,Candida albicans [7],slight inhibitory effect
same,effectiveness against growth of Aspergillus niger,Aspergillus niger [8],most effective
same,effectiveness alone against Aspergillus,"Aspergillus niger [8]; alone, summary statement",very effective
same,inhibition of the other organisms,[3]; alone,slightly inhibitory on three others
C[C@@H]1C/C=C/C=C/C=C/C=C/[C@H](O[C@@H]2O[C@H](C)[C@@H](O)[C@H](N)[C@@H]2O)C[C@@H]2O[C@](O)(C[C@@H](O)C[C@H]3O[C@@H]3/C=C/C(=O)O1)C[C@H](O)[C@H]2C(=O)O [natamycin],effectiveness alone compared with the parabens,[3]; alone,not as effective alone as the parabens
same,synergistic effect,[3],does not contribute any synergistic effect
CCCOC(=O)c1ccc(O)cc1 [propyl paraben],extension of the time when clogging occurred beyond that attained with no paraben,Candida albicans [9],1 to 2 weeks
same,lower CFU/ml of Candida albicans than the control,Candida albicans [10]; 7 days,2-3 log cycle
same,difference in Candida albicans CFU/ml from the control,Candida albicans [10]; 14 days,< 2 logs
same,overall effectiveness over the five challenge organisms,5 organisms,more effective against 4 of the organisms than either of the other 2 antimicrobials alone
same,Aspergillus niger growth inhibition,"Aspergillus niger [11]; 0.13% propyl paraben in Isosource HN, compared with the other antimicrobials",inhibited most
same,spore growth of Aspergillus niger,Aspergillus niger [11]; 7 days,do not exhibit spore growth
same,effectiveness against Lactobacillus leichmanni,Lactobacillus leichmanni,effective
same,inhibition against S. aureus,"Staphylococus aureus; 0.2% propyl paraben, summary statement",slight inhibition
same,inhibitory effect on Staphylococus aureus,"Staphylococus aureus; 0.2%, first 24 hours",slight inhibitory effect
same,inhibition of Candida albicans,Candida albicans [7],good inhibition
same,effectiveness against growth of Aspergillus niger,Aspergillus niger [8],most effective
same,organisms showing good inhibition,[3]; 0.2%,good inhibition of three out of the six organisms
same,overall inhibitory effectiveness among agents,[3]; 0.2%,most effective inhibitory agent overall
